According to patent publication US9469631B2 (Boehringer Ingelheim International GmbH, priority 2012, dated 2016):

The compounds below were run against human GPR119 (Homo sapiens (Human), UniProt Q8TDV5) (assay: AlphaScreen cAMP assay in MIN6 cells stably transfected with human GPR119). Details: Min-6/hGPR119 cells, 45 min incubation at room temperature.
Format: cell-based
Description: The compounds of formula I according to the invention modulate the activity of the G-protein-coupled receptor GPR119. The effect of the compounds on the activation of GPR119 and on the stimulation of intracellular cAMP concentration is determined using the AlphaScreen cAMP Assay Kit (Cat. No. #6760625R) made by PerkinElmer.
MIN6 cells [Miyazaki J et al. Endocrinology. 1990 July; 127(1):126-32] are stably transfected with an expression vector for human GPR119 cDNA (Acc. No. NP_848566). Min-6/hGPR119 cells are cultured in DMEM, 10% FBS, 50 μM β-mercaptoethanol, 0.3 mg/mL Geniticin, 2 mM GlutaMAX at 37° C. 5% CO2. For the assay, the cells are seeded in Optiplates (white, 384-well, 160W-barcoded, TC, sterile with lid, Cat. No. #6007688 (Perkin Elmer); 10000 cells/well; 50 μl). The plates covered with lids are then incubated for 24 hours at 37° C./5% CO2. After the medium is aspirated from the wells completely, 10 μl of the test compound are added, the compounds are diluted using stimulating buffer (140 mM NaCl, 3.6 mM KCl, 0.5 mM NaH2PO4, 0.5 mM MgSO4, 1.5 mM CaCl2, 10 mM Hepes, 5 mM NaHCO3; pH 7.4. 0.5 mM IBMX and 0.1% BSA, the final DMSO concentration is 1%). After 45 minutes incubation at room temperature (approx. 20° C.), the cAMP concentrations are determined using the AlphaScreen cAMP Assay Kit (Cat. No. #6760625R from PerkinElmer).

human GPR119, sequence (Q8TDV5 whole entry): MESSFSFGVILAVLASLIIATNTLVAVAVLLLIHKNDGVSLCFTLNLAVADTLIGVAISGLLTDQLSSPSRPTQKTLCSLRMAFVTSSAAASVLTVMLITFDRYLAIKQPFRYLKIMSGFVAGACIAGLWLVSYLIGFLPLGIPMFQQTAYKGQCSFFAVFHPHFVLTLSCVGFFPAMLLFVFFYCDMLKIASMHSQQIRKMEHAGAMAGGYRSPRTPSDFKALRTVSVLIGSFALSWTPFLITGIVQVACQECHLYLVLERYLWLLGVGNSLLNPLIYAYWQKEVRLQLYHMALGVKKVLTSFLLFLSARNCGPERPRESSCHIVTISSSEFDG

EC50 [nM]	Compound
27	CC(C)(C)OC(=O)N1CCC(N(C(=O)c2ccc(-c3ccncc3C#N)cc2)C2CC2)CC1 [Example 29, 4-{[4-(3-Cyano-pyridin-4-yl)-benzoyl]-cyclopropyl-amino}-piperidine-1-carboxylic acid tert-butyl ester]
171	CNC(=O)c1ccc(-c2ccc(C(=O)N(C3CC3)C3CCN(C(=O)OC(C)(C)C)CC3)cc2)nc1 [Example 30, 4-{Cyclopropyl-[4-(5-methylcarbamoyl-pyridin-2-yl)-benzoyl]-amino}-piperidine-1-carboxylic acid tert-butyl ester]
49	CC(C)OC(=O)N1CCC(N(C(=O)c2ccc(-c3ccncc3C#N)cc2)C2CC2)CC1 [Example 31, 4-{[4-(3-Cyano-pyridin-4-yl)-benzoyl]-cyclopropyl-amino}-piperidine-1-carboxylic acid isopropyl ester]
19	CC1(OC(=O)N2CCC(N(C(=O)c3ccc(-c4ccncc4C#N)cc3)C3CC3)CC2)CC1 [Example 32, 4-{[4-(3-Cyano-pyridin-4-yl)-benzoyl]-cyclopropyl-amino}-piperidine-1-carboxylic acid 1-methyl-cyclopropyl ester]
9	CC(C)(C)OC(=O)N1CCC(N(C(=O)c2cc(F)c(-c3cnco3)c(F)c2)C2CC2)CC1 [Example 33, 4-[Cyclopropyl-(3,5-difluoro-4-oxazol-5-yl-benzoyl)-amino]-piperidine-1-carboxylic acid tert-butyl ester]
21	CC(C)(C)OC(=O)N1CCC(N(C(=O)c2ccc(-c3ccncc3C#N)c(F)c2)C2CC2)CC1 [Example 34, 4-{[4-(3-Cyano-pyridin-4-yl)-3-fluoro-benzoyl]-cyclopropyl-amino}-piperidine-1-carboxylic acid tert-butyl ester]
45	CC(C)(C)OC(=O)N1CCC(N(C(=O)c2ccc(-c3cnco3)cc2F)C2CC2)CC1 [Example 35, 4-[Cyclopropyl-(2-fluoro-4-oxazol-5-yl-benzoyl)-amino]-piperidine-1-carboxylic acid tert-butyl ester]
219	CC(C)(C)OC(=O)N1CCC(N(C(=O)c2c(F)cc(-c3cnco3)cc2F)C2CC2)CC1 [Example 36, 4-[Cyclopropyl-(2,6-difluoro-4-oxazol-5-yl-benzoyl)-amino]-piperidine-1-carboxylic acid tert-butyl ester]
152	Cn1cncc1-c1ccc(C(=O)N(C2CC2)C2CCN(C(=O)OC(C)(C)C)CC2)cc1 [Example 42, 4-{Cyclopropyl-[4-(3-methyl-3H-imidazol-4-yl)-benzoyl]-amino}-piperidine-1-carboxylic acid tert-butyl ester]
149	Cc1ncc(-c2ccc(C(=O)N(C3CC3)C3CCN(C(=O)OC(C)(C)C)CC3)cc2)o1 [Example 43, 4-{Cyclopropyl-[4-(2-methyl-oxazol-5-yl)-benzoyl]-amino}-piperidine-1-carboxylic acid tert-butyl ester]
298	CC(C)(C)OC(=O)N1CCC(N(C(=O)c2ccc(-c3cocn3)cc2)C2CC2)CC1 [Example 44, 4-[Cyclopropyl-(4-oxazol-4-yl-benzoyl)-amino]-piperidine-1-carboxylic acid tert-butyl ester]
15	COC1CN(C(=O)OC(C)(C)C)CCC1N(C(=O)c1ccc(-c2cnco2)cc1)C1CC1 (stereo not shown) [Example 45, 4-[Cyclopropyl-(4-oxazol-5-yl-benzoyl)-amino]-3-methoxy-piperidine-1-carboxylic acid tert-butyl ester]
832	CC(C)(C)OC(=O)N1CCC(N(C(=O)c2ccc(-n3ccnc3)cc2)C2CC2)CC1 [Example 52, 4-[Cyclopropyl-(4-imidazol-1-yl-benzoyl)-amino]-piperidine-1-carboxylic acid tert-butyl ester]
33	CC(C)(C)OC(=O)N1CCC(N(C(=O)c2ccc(-c3cnco3)cc2)C2CC2)CC1 [Example 53, 4-[Cyclopropyl-(4-oxazol-5-yl-benzoyl)-amino]-piperidine-1-carboxylic acid tert-butyl ester]
84	CC(C)(C)OC(=O)N1CCC(N(C(=O)c2ccc(-c3ccc(C#N)cc3)cc2)C2CC2)CC1 [Example 54, 4-[(4′-Cyano-biphenyl-4-carbonyl)-cyclopropyl-amino]-piperidine-1-carboxylic acid tert-butyl ester]
927	Cc1cn(-c2ccc(C(=O)N(C3CC3)C3CCN(C(=O)OC(C)(C)C)CC3)cc2)c(C)n1 [Example 55, 4-{Cyclopropyl-[4-(2,4-dimethyl-imidazol-1-yl)-benzoyl]-amino}-piperidine-1-carboxylic acid tert-butyl ester]

EC50 [nM]	Compound
104	CC(C)(C)OC(=O)N1CCC(N(C(=O)c2ccc(-n3cnc(-c4ccccc4)c3)cc2)C2CC2)CC1 [Example 56, 4-{Cyclopropyl-[4-(4-phenyl-imidazol-1-yl)-benzoyl]-amino}-piperidine-1-carboxylic acid tert-butyl ester]
99	CC(C)(C)OC(=O)N1CCC(N(C(=O)c2ccc(-c3ccno3)cc2)C2CC2)CC1 [Example 57, 4-[Cyclopropyl-(4-isoxazol-5-yl-benzoyl)-amino]-piperidine-1-carboxylic acid tert-butyl ester]
214	CC(C)(C)OC(=O)N1CCC(N(C(=O)c2ccc(-c3cccs3)cc2)C2CC2)CC1 [Example 58, 4-[Cyclopropyl-(4-thiophen-2-yl-benzoyl)-amino]-piperidine-1-carboxylic acid tert-butyl ester]
332	CC(C)(C)OC(=O)N1CCC(N(C(=O)c2ccc(-c3nccs3)cc2)C2CC2)CC1 [Example 59, 4-[Cyclopropyl-(4-thiazol-2-yl-benzoyl)-amino]-piperidine-1-carboxylic acid tert-butyl ester]
347	Cc1noc(-c2ccc(C(=O)N(C3CC3)C3CCN(C(=O)OC(C)(C)C)CC3)cc2)n1 [Example 60, 4-{Cyclopropyl-[4-(3-methyl-[1,2,4]oxadiazol-5-yl)-benzoyl]-amino}-piperidine-1-carboxylic acid tert-butyl ester]
513	Cc1nnc(-c2ccc(C(=O)N(C3CC3)C3CCN(C(=O)OC(C)(C)C)CC3)cc2)o1 [Example 61, 4-{Cyclopropyl-[4-(5-methyl-[1,3,4]oxadiazol-2-yl)-benzoyl]-amino}-piperidine-1-carboxylic acid tert-butyl ester]
650	CC(C)(C)OC(=O)N1CCC(N(C(=O)c2ccc(-c3nnco3)cc2)C2CC2)CC1 [Example 62, 4-[Cyclopropyl-(4-[1,3,4]oxadiazol-2-yl-benzoyl)-amino]-piperidine-1-carboxylic acid tert-butyl ester]
127	CC(C)(C)OC(=O)N1CCC(N(C(=O)c2ccc(-n3cncn3)cc2)C2CC2)CC1 [Example 63, 4-[Cyclopropyl-(4-[1,2,4]triazol-1-yl-benzoyl)-amino]-piperidine-1-carboxylic acid tert-butyl ester]
278	CC(C)(C)OC(=O)N1CCC(N(C(=O)c2ccc(-n3cccc3)cc2)C2CC2)CC1 [Example 64, 4-[Cyclopropyl-(4-pyrrol-1-yl-benzoyl)-amino]-piperidine-1-carboxylic acid tert-butyl ester]
659	CC(C)(C)OC(=O)N1CCC(N(C(=O)c2ccc(-c3ccco3)cc2)C2CC2)CC1 [Example 65, 4-[Cyclopropyl-(4-furan-2-yl-benzoyl)-amino]-piperidine-1-carboxylic acid tert-butyl ester]
875	CC(C)(C)OC(=O)N1CCC(N(C(=O)c2ccc(-c3nnc(N)s3)cc2)C2CC2)CC1 [Example 66, 4-{[4-(5-Amino-[1,3,4]thiadiazol-2-yl)-benzoyl]-cyclopropyl-amino}-piperidine-1-carboxylic acid tert-butyl ester]
316	Cc1nc(-c2ccc(C(=O)N(C3CC3)C3CCN(C(=O)OC(C)(C)C)CC3)cc2)no1 [Example 67, 4-{Cyclopropyl-[4-(5-methyl-[1,2,4]oxadiazol-3-yl)-benzoyl]-amino}-piperidine-1-carboxylic acid tert-butyl ester]
192	CC(C)(C)OC(=O)N1CCC(N(C(=O)c2ccc(-c3noc(Cc4ccccc4)n3)cc2)C2CC2)CC1 [Example 68, 4-{[4-(5-Benzyl-[1,2,4]oxadiazol-3-yl)-benzoyl]-cyclopropyl-amino}-piperidine-1-carboxylic acid tert-butyl ester]
158	CC(C)(C)OC(=O)N1CCC(N(C(=O)c2ccc(-c3cncnc3)cc2)C2CC2)CC1 [Example 69, 4-[Cyclopropyl-(4-pyrimidin-5-yl-benzoyl)-amino]-piperidine-1-carboxylic acid tert-butyl ester]
41	CC(C)(C)OC(=O)N1CCC(N(C(=O)c2ccc(-c3ccncc3)cc2)C2CC2)CC1 [Example 70, 4-[Cyclopropyl-(4-pyridin-4-yl-benzoyl)-amino]-piperidine-1-carboxylic acid tert-butyl ester]
